Laboratory results as given in ChEMBL document CHEMBL1144040, “Inhibitors of anthrax lethal factor based upon N-oleoyldopamine” (Bioorg Med Chem Lett, 2008).
Calls of active or inactive are those of the source. The calls are words filed in the database; no cut-off is given here.

What was measured:
[1] = target: T1, Lethal factor (Bacillus anthracis) (UniProt P15917); test: Inhibition of Bacillus anthracis lethal factor up to 100 uM by FRET assay
T1 sequence (whole entry): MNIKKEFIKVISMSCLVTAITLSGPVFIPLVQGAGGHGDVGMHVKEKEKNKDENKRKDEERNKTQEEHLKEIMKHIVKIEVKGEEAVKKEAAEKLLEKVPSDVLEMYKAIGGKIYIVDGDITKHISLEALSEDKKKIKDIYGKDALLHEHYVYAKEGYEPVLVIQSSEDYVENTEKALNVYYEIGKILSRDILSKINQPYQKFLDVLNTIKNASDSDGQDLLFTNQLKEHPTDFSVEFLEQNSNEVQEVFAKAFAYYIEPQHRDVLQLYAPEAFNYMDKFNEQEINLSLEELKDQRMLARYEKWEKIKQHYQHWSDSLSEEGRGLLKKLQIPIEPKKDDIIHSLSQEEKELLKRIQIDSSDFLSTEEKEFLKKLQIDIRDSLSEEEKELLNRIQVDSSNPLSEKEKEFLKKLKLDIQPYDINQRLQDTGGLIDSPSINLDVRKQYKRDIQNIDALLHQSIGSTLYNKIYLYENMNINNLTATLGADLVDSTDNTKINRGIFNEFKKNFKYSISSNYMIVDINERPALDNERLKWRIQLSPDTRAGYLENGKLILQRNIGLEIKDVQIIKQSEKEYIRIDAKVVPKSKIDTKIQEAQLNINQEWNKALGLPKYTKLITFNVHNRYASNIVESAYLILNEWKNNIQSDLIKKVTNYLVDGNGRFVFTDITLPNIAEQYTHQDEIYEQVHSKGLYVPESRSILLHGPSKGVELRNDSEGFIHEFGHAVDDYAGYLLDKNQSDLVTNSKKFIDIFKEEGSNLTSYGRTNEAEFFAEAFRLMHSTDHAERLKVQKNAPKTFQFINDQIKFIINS

Lethal factor [2] = target: T2, Lethal factor (Bacillus anthracis, UniProt P15917); test: Inhibition of Bacillus anthracis lethal factor by cell-based assay
T2 sequence (P15917 whole entry): T1 sequence (whole entry)

Lethal factor [3] = target: T2, Lethal factor; test: Inhibition of Bacillus anthracis lethal factor by FRET assay
J774.A1 = test: Inhibition of lethal factor induced toxicity in mouse J774A.1 macrophages after 4 hrs by MTT assay; format: functional, cell-based; conditions: J774.A1, 4 h

SMILES: CCCCCC(=O)NCCc1ccc(O)c(O)c1
- Activity [1]: inactive

SMILES: CCCCCCCCCCCCCCCCCC(=O)NCCc1ccc(O)c(O)c1
- Activity [1]: inactive

SMILES: CCCCCCCC/C=C/CCCCCCCC(=O)NCCc1ccc(O)c(O)c1
- Activity [1]: inactive

SMILES: CCCCCCCC/C=C\CCCCCCCC(=O)NCc1ccc(C(=O)NO)cc1
- IC50 (Lethal factor [2]): 42 µM
- Ki (Lethal factor [3]): 6.2 µM

SMILES: CCCCCCCC/C=C\CCCCCCCC(=O)NCc1ccc(O)c(O)c1
- IC50 (Lethal factor [2]): 15 µM
- IC50 (J774.A1): 4.3 µM
- Ki (Lethal factor [3]): 2.2 µM
